Assay: solubility in water
Type: physicochemical
Conditions: for solubility in water: temperature not stated
Text: The concentrated solution was desalinated in a visking tubing placed in distilled water and the water replaced periodically until no further chloride ions could be detected using […] and the product precipitated by addition of ethanol to give 46 g of the title product (80% yield) having a lambda max at 417 nm and very high solubility in water.
The higher solubility of C1 compared with D1 and D2 means that more C1 can be prepared in a given vessel than for D1 or D2.

Row | solubility in water | further results | SMILES
1 | high | – | CC(C)N(c1cccc(S(=O)(=O)O)c1)c1nc(Cl)nc(Nc2ccc(N=Nc3cc4c(S(=O)(=O)O)cc(S(=O)(=O)O)cc4cc3S(=O)(=O)O)c(NC(N)=O)c2)n1 [Example 3]
2 | – | solubility in water at 20° C. (20° C.): very high | CC(C)N(c1ccc(S(=O)(=O)O)cc1)c1nc(Cl)nc(Nc2ccc(N=Nc3cc4c(S(=O)(=O)O)cc(S(=O)(=O)O)cc4cc3S(=O)(=O)O)c(NC(N)=O)c2)n1 [Example 4]
3 | very high | – | CCN(c1nc(Cl)nc(Nc2ccc(N=Nc3cc4c(S(=O)(=O)O)cc(S(=O)(=O)O)cc4cc3S(=O)(=O)O)c(NC(N)=O)c2)n1)c1cc(S(=O)(=O)O)ccc1C [Example 1]
4 | very high | – | CCN(c1nc(Nc2ccc(N=Nc3cc4c(S(=O)(=O)O)cc(S(=O)(=O)[O-])cc4cc3S(=O)(=O)O)c(NC(N)=O)c2)nc(-[n+]2ccc(C(=O)O)cc2)n1)c1cc(S(=O)(=O)O)ccc1C [Example 2]
5 | – | solubility in water at 25° C. (25° C.): good | CCN(c1nc(Cl)nc(Nc2cc(NC(C)=O)c(N=Nc3cc(S(=O)(=O)O)c4cccc(S(=O)(=O)O)c4c3)cc2OC)n1)c1cc(S(=O)(=O)O)ccc1C [Example 5]

Reference: patent US5516897A, “Monoazo reactive dyes and solutions thereof” (Zeneca Limited, priority 1992, dated 1996)
